# Test results: patent US20190365697A1, “Method for Treating Liver Dysfunction” (PROFEAT BIOTECHNOLOGY CO., LTD., priority 2017, published 2019)
# Tested on: dogs, whose liver functions were not improved after the administration of SAMe
# Test: Administration of SAMe followed by administration of Composition A1 to dogs; serum ALT, AST
# Assay type: in vivo
# Conditions: SAMe alone to dogs, clinically observed
# Procedure: Therefore, Composition A1 was administered to 3 dogs, whose liver functions were not improved after the administration of SAMe. And the serum biochemistry values related to the liver function, ALT, AST and ALKP, were examined.
smiles,measurement,value
"C[S+](CC[C@H](N)C(=O)[O-])C[C@H]1O[C@@H](n2cnc3c(N)ncnc32)[C@H](O)[C@@H]1O (stereo partly shown) [SAMe, S-adenosylmethionine]",improvement of liver functions,liver functions still cannot be improved
